Results on two compounds are retold here after PMC10055046 (bioRxiv, 2023).

The target in one assay is T1, OCT2CS (Homo sapiens, UniProt O15244).
T1 sequence (O15244 1-555): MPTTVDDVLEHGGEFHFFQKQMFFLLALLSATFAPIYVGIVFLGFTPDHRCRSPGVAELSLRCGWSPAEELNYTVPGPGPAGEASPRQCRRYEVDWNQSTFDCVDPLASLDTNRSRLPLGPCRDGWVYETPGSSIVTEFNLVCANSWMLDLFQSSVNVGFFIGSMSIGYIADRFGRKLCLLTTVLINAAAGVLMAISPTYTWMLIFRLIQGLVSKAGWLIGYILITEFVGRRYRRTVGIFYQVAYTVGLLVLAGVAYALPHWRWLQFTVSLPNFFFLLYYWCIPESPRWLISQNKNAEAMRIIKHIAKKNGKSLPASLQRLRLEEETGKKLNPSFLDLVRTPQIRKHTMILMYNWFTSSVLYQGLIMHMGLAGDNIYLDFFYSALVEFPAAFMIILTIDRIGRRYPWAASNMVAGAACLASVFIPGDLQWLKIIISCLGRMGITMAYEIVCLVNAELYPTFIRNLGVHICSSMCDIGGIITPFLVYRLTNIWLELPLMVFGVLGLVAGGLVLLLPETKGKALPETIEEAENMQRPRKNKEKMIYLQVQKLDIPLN
The experiment in a line: [3H]-verapamil accumulation in OCT2CS-injected oocytes. Format: cell-based. To be noted: 100 nM [3H]-verapamil, 30 min.

Another assay concerns the target T2, WT hOCT1 (Homo sapiens, UniProt O15245).
T2 sequence (O15245 1-554): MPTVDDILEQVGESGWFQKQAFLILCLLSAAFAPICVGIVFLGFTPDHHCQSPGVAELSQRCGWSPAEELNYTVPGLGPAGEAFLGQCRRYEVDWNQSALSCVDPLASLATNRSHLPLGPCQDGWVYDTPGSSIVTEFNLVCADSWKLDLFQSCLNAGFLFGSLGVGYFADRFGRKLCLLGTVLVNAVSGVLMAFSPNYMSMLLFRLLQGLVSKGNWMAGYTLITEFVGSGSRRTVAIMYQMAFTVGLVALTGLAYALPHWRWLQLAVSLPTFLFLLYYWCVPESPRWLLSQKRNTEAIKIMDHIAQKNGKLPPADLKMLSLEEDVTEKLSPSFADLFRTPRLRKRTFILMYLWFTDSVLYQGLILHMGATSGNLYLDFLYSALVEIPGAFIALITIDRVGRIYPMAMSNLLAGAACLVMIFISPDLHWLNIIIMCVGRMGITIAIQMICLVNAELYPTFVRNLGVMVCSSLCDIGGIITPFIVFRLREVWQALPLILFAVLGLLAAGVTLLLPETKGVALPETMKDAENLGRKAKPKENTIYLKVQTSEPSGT
Conditions: cited from earlier work.

In the case of `COc1ccc(CCN(C)CCCC(C#N)(c2ccc(OC)c(OC)c2)C(C)C)cc1OC` (racemic) [(±)-VPM, verapamil], the “Uptake of [3H]-verapamil by OCT2CS” value at OCT2CS (n=3, listed as VPM) was “does not mediate uptake”; at OCT2CS (n=3, listed as verapamil), “does not accumulate”.
Regarding `CN(C)C(=N)N=C(N)N` [metformin], the “Kt for metformin, WT hOCT1, previous reports” value at WT hOCT1 was 1 to 5 mM.
